Measurements taken from patent US4839386A, “Ionic bis (Dicarboxylato) palladate (II)” (Engelhard Corporation, priority 1987, dated 1989).
Where “and” joins values, the source holds several entries; their conditions need not be identical. Equal values may be shown once. Read-outs that look alike come from different tables or passages of the source.

Key:
S180 ascites = test: Anti-Tumor Screening; S180 ascites in mice (% increase in life span, survivors); format: in vivo, female CFW Swiss mice; details: for Best % ILS (Dosage): Table 4
Description: The compounds used in this invention were evaluated against S180 ascites in female CFW Swiss mice. The mice were weighed (average weight: 20 g), placed into cages (six mice to a cage) and on day zero the mice were inoculated with 0.2 ml of a freshly prepared saline suspension (0.15M NaC1) containing 1×10^7 tumor cells/ml or a total of 2×10^6 cells. This inoculum was freshly prepared using "transfer" mice which had been injected with tumor cells the previous week; it was obtained via the following steps (1) the removal of cells from the peritoneal cavity of the sacrificed transfer mouse, (2) alternate centrifugation and washing operations (2-3 times with cold saline) to remove blood and other components, and (3) dilution of the volume of the packed cell with saline (1:3). A final centrifugation was carried out at 1000 RPM over a two minute period. A cell count was made on a 2000-fold dilution of this 1:3 suspension by means of a Coulter Counter. A final dilution to 1×10^7 cells/ml was made based on the average count.
On day 1, solutions of the test compounds were prepared and each mouse in a set of six was injected with the same test compound at the same dosage. The doses were based on the average weight of the animals (cage weight). Also, beginning on day 1 two controls were employed containing six mice per control:
(1) Normal Control: This consisted solely of the carrier or diluent used in combination with the test compound; and
(2) Positive Control: This consisted solely of the known anti-tumor agent cis-[Pt(NH3)2 C12 ] in saline (8 mg/kg) to test the response of the biological system.
The effectiveness of a test compound was measured in terms of the % increase in life span (% ILS) of the test mice relative to the Normal Control (Calculated from the day of tumor inoculation, i.e., day zero). To standardize the test data and permit intercomparisons, the day of evaluation was arbitrarily taken as that day corresponding to twice the mean life span (or average day of death) of the control. This established a practical upper limit of 100% on the % ILS attainable. For calculation purposes the survivors on the day of evaluation were considered to have died on that day. The % ILS was calculated as follows:
% ILS=mean-life span of test mice/mean-life span of control
ILS values in excess of 50% were interpreted as being indicative of anti-tumor cell activity in animals whereas, values in excess of 75% indicated excellent activity.
The test compounds were evaluated in water.

S 180 Ascites = test: effective dose (ED90) and therapeutic index, S 180 ascites, method of Miller and Taiter; format: in vivo, mice; set-up: ED90: unit not given here; details: for Therapeutic Index: LD50/ED90; for ED90: dose which causes a 50% increase in life span in 90% of the test animals, determined graphically
Description: The effective dose (ED90), lethal dose (LD50) and therapeutic index (TI) were determined via the method of Miller and Taiter (Reported by R. A. Turner, "Screening Methods in Pharmacology", Academic Press, New York, pages 61-62 (1965)).
In this study Ed90 represents the dose which causes a 50% increase in life span (ILS) in 90% of the test animals (mice) determined graphically. The LD50 value represents the lethal dose to 50% of said animals (Therapeutic Index=LD50 /Ed90).

[1] = system: testicular and ovarian tumors; details: background; cited from earlier work
[2] = solubility in water at room temperature

| Compound | % ILS (S180 ascites; 10 mg/kg) | Survivors (S180 ascites; 10 mg/kg) | % ILS (S180 ascites; 20 mg/kg) | Survivors (S180 ascites; 20 mg/kg) | % ILS (S180 ascites; 40 mg/kg) | Survivors (S180 ascites; 40 mg/kg) | % ILS (S180 ascites; 80 mg/kg) | Survivors (S180 ascites; 80 mg/kg) | % ILS (S180 ascites; 160 mg/kg) | Survivors (S180 ascites; 160 mg/kg) | Best % ILS (Dosage) (S180 ascites; 160 mg/kg) | % ILS (S180 ascites; 320 mg/kg) | Survivors (S180 ascites; 320 mg/kg) | Therapeutic Index (S 180 Ascites) | ED90 (S 180 Ascites) | % ILS (S180 ascites; 50 mg/kg) | Survivors (S180 ascites; 50 mg/kg) | % ILS (S180 ascites; 100 mg/kg) | Survivors (S180 ascites; 100 mg/kg) | % ILS (S180 ascites; 200 mg/kg) | also measured |
| --- | --- | --- | --- | --- | --- | --- | --- | --- | --- | --- | --- | --- | --- | --- | --- | --- | --- | --- | --- | --- | --- |
| O=C([O-])C1(C(=O)[O-])CCC1.O=C([O-])C1(C(=O)[O-])CCC1.[K+].[K+].[Pd+2] [Example 6, Potassium Bis(Cyclobutanedicarboxylato)palladate(II)] | -4% | 0 of 6 | 9% | 0 of 6 | 7% | 0 of 6 | -7% | 0 of 6 | 50% | 0 of 6 | 50% | -75% | 0 of 6 | 1.1 | 210 | – | – | – | – | – | solubility in water: 200 mg/mL |
| CC(C)(C(=O)[O-])C(=O)[O-].CC(C)(C(=O)[O-])C(=O)[O-].[K+].[K+].[Pd+2] [Example 7, Potasium Bis(Dimethylmalonato)palladate(II)] | -15% | 0 of 6 | 0% | 0 of 6 | -8% | 0 of 6 | -11% | 0 of 6 | 61% | 1 of 6 | 61% | 26% | 0 of 6 | – | 210 | – | – | – | – | – | – |
| cis-[Pt(NH3)2 -Cl2 ] [Positive Control, reference compound] | – | – | – | – | – | – | – | – | – | – | – | – | – | – | – | – | – | – | – | – | Positive Control Survivors (S180 ascites; 8 mg/kg in saline): 0 of 6 and 1 of 6 and 2 of 6 and 4 of 6; regression of testicular and ovarian tumors (in words) [1]: singularly successful in bringing about a regression of testicular and ovarian tumors |
| O=C([O-])C(O)C(=O)[O-].O=C([O-])C(O)C(=O)[O-].[K+].[K+].[Pd+2] [Example 4, Potassium Bis(Tartronato)palladate(II)] | – | – | – | – | – | – | – | – | – | – | – | – | – | 2.1 | 190 | 11% | 0 of 6 | 68% | 3 of 6 | 76% | % ILS (S180 ascites; 12.5 mg/kg): 1%; Survivors (S180 ascites; 12.5 mg/kg): 0 of 6; % ILS (S180 ascites; 25 mg/kg): 12%; Survivors (S180 ascites; 25 mg/kg): 0 of 6; Survivors (S180 ascites; 200 mg/kg): 0 of 6; Best % ILS (Dosage) (S180 ascites; 200 mg/kg): 76%; % ILS (S180 ascites; 400 mg/kg): 14%; Survivors (S180 ascites; 400 mg/kg): 3 of 6; solubility in water: 2 mg/mL |
| CCC(C(=O)[O-])C(=O)[O-].CCC(C(=O)[O-])C(=O)[O-].[K+].[K+].[Pd+2] [Example 1, Potassium Bis(Ethylmalonato)palladate(II)] | -3% | 0 of 6 | – | 0 of 6 | – | 0 of 6 | – | 0 of 6 | – | – | 94% | – | – | 2.1 | 150 | – | – | – | – | – | solubility in water [2]: 70 mg/mL; % ILS (S180 ascites; 5 mg/kg): 6%; Survivors (S180 ascites; 5 mg/kg): 0 of 6; % ILS (S180 ascites; 160 mg/kg, listed as Ex. 1): 94% and 55%; Survivors (S180 ascites; 160 mg/kg, listed as Ex. 1): 5 of 6 and 1 of 6; Survivors (S180 ascites; 320 mg/kg, listed as Ex. 1): 0 of 6 and 1 of 6 |
| O=C([O-])CC(=O)[O-].O=C([O-])CC(=O)[O-].[K+].[K+].[Pd+2] [K2 [Pd(Malonate)2]] | 6% and 8% | 0 of 6 | -1% and 8% | 0 of 6 | -12% | 0 of 6 | 69% and 66% | 3 of 6 and 2 of 6 | 82% and 86% | 2 of 6 and 3 of 6 | 82% and 86% | -74% | 0 of 6 | – | 120 | – | – | – | – | – | – |
| O=C([O-])c1ccccc1C(=O)[O-].O=C([O-])c1ccccc1C(=O)[O-].[K+].[K+].[Pd+2] [Example 5, Potassium Bis(phthalato)palladate(II)] | – | – | – | – | – | – | – | – | – | – | – | – | – | 2.3 | 220 | 18% | 0 of 6 | 38% | 1 of 6 | 79% | solubility in water [2]: 80 mg/mL; Survivors (S180 ascites; 200 mg/kg): 2 of 6; Best % ILS (Dosage) (S180 ascites; 200 mg/kg): 79%; % ILS (S180 ascites; 400 mg/kg): 25%; Survivors (S180 ascites; 400 mg/kg): 0 of 6 |
| O=C([O-])C(=O)C(=O)[O-].O=C([O-])C(=O)C(=O)[O-].[K+].[K+].[Pd+2] [Example 2, Potassium Bis(Ketomalonato)palladate(II)] | 4% | 0 of 6 | 4% | 0 of 6 | 4% | 0 of 6 | 13% | 1 of 6 | 81% | 5 of 6 | 81% | 17% | 0 of 6 | 2.0 | 200 | – | – | – | – | – | solubility in water: 6.7 mg/mL |
| O=C([O-])C(=O)[O-].O=C([O-])C(=O)[O-].[K+].[K+].[Pd+2] [K2 [Pd(Oxalate)2], reference compound] | – | – | – | – | – | – | – | – | – | – | – | – | – | – | – | -7% | 0 of 6 | -9% | 1 of 6 | -71% | % ILS (S180 ascites; 12.5 mg/kg): 2%; Survivors (S180 ascites; 12.5 mg/kg): 0 of 6; % ILS (S180 ascites; 25 mg/kg): 33%; Survivors (S180 ascites; 25 mg/kg): 0 of 6; Survivors (S180 ascites; 200 mg/kg): 0 of 6 |
| CC(C(=O)[O-])C(=O)[O-].CC(C(=O)[O-])C(=O)[O-].[K+].[K+].[Pd+2] [Example 3, Potassium Bis(Methylmalonato)palladate(II)] | – | – | – | – | – | – | – | – | – | – | – | – | – | 1.1 | 160 | 2% | 0 of 6 | 54% | 2 of 6 | 54% | solubility in water [2]: 21 mg/mL; % ILS (S180 ascites; 6.25 mg/kg): 11%; Survivors (S180 ascites; 6.25 mg/kg): 0 of 6; % ILS (S180 ascites; 12.5 mg/kg): 2%; Survivors (S180 ascites; 12.5 mg/kg): 0 of 6; % ILS (S180 ascites; 25 mg/kg): -6%; Survivors (S180 ascites; 25 mg/kg): 0 of 6; Best % ILS (Dosage) (S180 ascites; 100 mg/kg): 54%; Survivors (S180 ascites; 200 mg/kg): 0 of 6; % ILS (S180 ascites; 400 mg/kg): -83%; Survivors (S180 ascites; 400 mg/kg): 0 of 6 |
